Data published in patent publication US7998940B2, “Aptamers to von Willebrand factor and their use as thrombotic disease therapeutics” (Archemix Corp., priority 2004, dated 2011).
Read-outs that look alike come from different tables or passages of the source. Oligonucleotides are written 5' to 3', each unit as a sugar letter and its base; * is a phosphorothioate linkage, no mark a phosphodiester; rarer units and linkages stand in square brackets, end groups in braces. Plain capitals give the bases only. [invdT] = inverted (3'-3') thymidine; d = 2'-deoxy (DNA); m = 2'-O-methyl

Test system: full length human vWF (SEQ ID NO 7)
Test: dot blot KD determination and extent of binding, full length human vWF;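 further: dot blot binding of aptamers to full length human vWF across a protein titration, incubated 30 minutes at room temperature in 1x DPBS with BSA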
Settings: for % binding @ 100 nM vWF: extent of aptamer binding at 100 nM full length human vWF; for Kd: full length human vWF, dot blot, 8 point protein titration, read-out: KD

ARC1216: ARC1172 with one residue replaced by 2'-O methyl residue (DNA dGdGdCdGdTdGdCdAdGdTdGdCdCdTdTdCdGdGdCdCdGdTmGdCdGdGdTdGdCdCdTdCdCdGdTdCdAdCdGdCdC[invdT]; aptamer)
% binding @ 100 nM vWF (Phase 1 modification): 40% | Kd (Phase 1 modification): 0.6 nM

ARC1217: ARC1172 with one residue replaced by 2'-O methyl residue (DNA dGdGdCdGdTdGdCdAdGdTdGdCdCdTdTdCdGdGdCdCdGdTdGmCdGdGdTdGdCdCdTdCdCdGdTdCdAdCdGdCdC[invdT]; aptamer)
% binding @ 100 nM vWF (Phase 1 modification): 18% | Kd (Phase 1 modification): 14 nM

ARC1218: ARC1172 with one residue replaced by 2'-O methyl residue (DNA dGdGdCdGdTdGdCdAdGdTdGdCdCdTdTdCdGdGdCdCdGdTdGdCmGdGdTdGdCdCdTdCdCdGdTdCdAdCdGdCdC[invdT]; aptamer)
% binding @ 100 nM vWF (Phase 1 modification): 2% | Kd (Phase 1 modification): 32 nM

ARC1219: ARC1172 with one residue replaced by 2'-O methyl residue (DNA dGdGdCdGdTdGdCdAdGdTdGdCdCdTdTdCdGdGdCdCdGdTdGdCdGmGdTdGdCdCdTdCdCdGdTdCdAdCdGdCdC[invdT]; aptamer)
% binding @ 100 nM vWF (Phase 1 modification): 33% | Kd (Phase 1 modification): 3 nM

ARC1220: ARC1172 with one residue replaced by 2'-O methyl residue (dGdGdCdGdTdGdCdAdGdTdGdCdCdTdTdCdGdGdCdCdGdTdGdCdGdGmUdGdCdCdTdCdCdGdTdCdAdCdGdCdC[invdT]; aptamer)
% binding @ 100 nM vWF (Phase 1 modification): 17% | Kd (Phase 1 modification): 11 nM

ARC1221: ARC1172 with one residue replaced by 2'-O methyl residue (dGdGdCdGdTdGdCdAdGdTdGdCdCdTdTdCdGdGdCdCdGdTdGdCdGdGdTmGdCdCdTdCdCdGdTdCdAdCdGdCdC[invdT]; aptamer)
% binding @ 100 nM vWF (Phase 1 modification): 43% | Kd (Phase 1 modification): 1 nM

ARC1222: ARC1172 with one residue replaced by 2'-O methyl residue (dGdGdCdGdTdGdCdAdGdTdGdCdCdTdTdCdGdGdCdCdGdTdGdCdGdGdTdGmCdCdTdCdCdGdTdCdAdCdGdCdC[invdT]; aptamer)
% binding @ 100 nM vWF (Phase 1 modification): 40% | Kd (Phase 1 modification): 0.9 nM

ARC1223: ARC1172 with one residue replaced by 2'-O methyl residue (dGdGdCdGdTdGdCdAdGdTdGdCdCdTdTdCdGdGdCdCdGdTdGdCdGdGdTdGdCmCdTdCdCdGdTdCdAdCdGdCdC[invdT]; aptamer)
% binding @ 100 nM vWF (Phase 1 modification): 26% | Kd (Phase 1 modification): 36 nM

ARC1224: ARC1172 with one residue replaced by 2'-O methyl residue (dGdGdCdGdTdGdCdAdGdTdGdCdCdTdTdCdGdGdCdCdGdTdGdCdGdGdTdGdCdCmUdCdCdGdTdCdAdCdGdCdC[invdT]; aptamer)
% binding @ 100 nM vWF (Phase 1 modification): 47% | Kd (Phase 1 modification): 0.5 nM

ARC1225: ARC1172 with one residue replaced by 2'-O methyl residue (dGdGdCdGdTdGdCdAdGdTdGdCdCdTdTdCdGdGdCdCdGdTdGdCdGdGdTdGdCdCdTmCdCdGdTdCdAdCdGdCdC[invdT]; aptamer)
% binding @ 100 nM vWF (Phase 1 modification): 16% | Kd (Phase 1 modification): 11 nM

ARC1226: ARC1172 with one residue replaced by 2'-O methyl residue (dGdGdCdGdTdGdCdAdGdTdGdCdCdTdTdCdGdGdCdCdGdTdGdCdGdGdTdGdCdCdTdCmCdGdTdCdAdCdGdCdC[invdT]; aptamer)
% binding @ 100 nM vWF (Phase 1 modification): 25% | Kd (Phase 1 modification): 12 nM

ARC1227: ARC1172 with one residue replaced by 2'-O methyl residue (dGdGdCdGdTdGdCdAdGdTdGdCdCdTdTdCdGdGdCdCdGdTdGdCdGdGdTdGdCdCdTdCdCmGdTdCdAdCdGdCdC[invdT]; aptamer)
% binding @ 100 nM vWF (Phase 1 modification): 40% | Kd (Phase 1 modification): 3 nM

ARC1228: ARC1172 with one residue replaced by 2'-O methyl residue (dGdGdCdGdTdGdCdAdGdTdGdCdCdTdTdCdGdGdCdCdGdTdGdCdGdGdTdGdCdCdTdCdCdGmUdCdAdCdGdCdC[invdT]; aptamer)
% binding @ 100 nM vWF (Phase 1 modification): 43% | Kd (Phase 1 modification): 2 nM

ARC1229: ARC1172 with one residue replaced by 2'-O methyl residue (dGdGdCdGdTdGdCdAdGdTdGdCdCdTdTdCdGdGdCdCdGdTdGdCdGdGdTdGdCdCdTdCdCdGdTmCdAdCdGdCdC[invdT]; aptamer)
% binding @ 100 nM vWF (Phase 1 modification): 37% | Kd (Phase 1 modification): 5 nM

ARC1230: ARC1172 with one residue replaced by 2'-O methyl residue (dGdGdCdGdTdGdCdAdGdTdGdCdCdTdTdCdGdGdCdCdGdTdGdCdGdGdTdGdCdCdTdCdCdGdTdCmAdCdGdCdC[invdT]; aptamer)
% binding @ 100 nM vWF (Phase 1 modification): 46% | Kd (Phase 1 modification): 3 nM

ARC1231: ARC1172 with one residue replaced by 2'-O methyl residue (dGdGdCdGdTdGdCdAdGdTdGdCdCdTdTdCdGdGdCdCdGdTdGdCdGdGdTdGdCdCdTdCdCdGdTdCdAmCdGdCdC[invdT]; aptamer)
% binding @ 100 nM vWF (Phase 1 modification): 50% | Kd (Phase 1 modification): 1 nM

ARC1232: ARC1172 with one residue replaced by 2'-O methyl residue (dGdGdCdGdTdGdCdAdGdTdGdCdCdTdTdCdGdGdCdCdGdTdGdCdGdGdTdGdCdCdTdCdCdGdTdCdAdCmGdCdC[invdT]; aptamer)
% binding @ 100 nM vWF (Phase 1 modification): 51% | Kd (Phase 1 modification): 1 nM

ARC1233: ARC1172 with one residue replaced by 2'-O methyl residue (dGdGdCdGdTdGdCdAdGdTdGdCdCdTdTdCdGdGdCdCdGdTdGdCdGdGdTdGdCdCdTdCdCdGdTdCdAdCdGmCdC[invdT]; aptamer)
% binding @ 100 nM vWF (Phase 1 modification): 39% | Kd (Phase 1 modification): 2 nM

ARC1234: ARC1172 with one residue replaced by 2'-O methyl residue (dGdGdCdGdTdGdCdAdGdTdGdCdCdTdTdCdGdGdCdCdGdTdGdCdGdGdTdGdCdCdTdCdCdGdTdCdAdCdGdCmC[invdT]; aptamer)
% binding @ 100 nM vWF (Phase 1 modification): 42% | Kd (Phase 1 modification): 2 nM

ARC1235: ARC1172 with composite 2'-O methyl replacements in the stem regions (mGmGdCmGdTmGdCdAdGdTdGdCdCdTdTdCdGdGdCdCdGdTdGdCdGdGdTdGdCdCdTdCdCdGdTdCmAdCmGdCdC[invdT]; aptamer)
% binding @ 100 nM vWF (Phase 1 modification): 23% | Kd (Phase 1 modification): 13 nM

ARC1236: ARC1172 with composite 2'-O methyl replacements in the stem regions (dGdGmCdGmUdGdCdAdGdTdGdCdCdTdTdCdGdGdCdCdGdTdGdCdGdGdTdGdCdCdTdCdCdGdTmCdAmCdGmCmC[invdT]; aptamer)
% binding @ 100 nM vWF (Phase 1 modification): 32% | Kd (Phase 1 modification): 3 nM

ARC1237: ARC1172 with composite 2'-O methyl replacements in the stem regions (mGmGmCmGmUmGdCdAdGdTdGdCdCdTdTdCdGdGdCdCdGdTdGdCdGdGdTdGdCdCdTdCdCdGdTmCmAmCmGmCmC[invdT]; aptamer)
% binding @ 100 nM vWF (Phase 1 modification): 9% | Kd (Phase 1 modification): 41 nM

ARC1238: ARC1172 with composite 2'-O methyl replacements in the stem regions (dGdGdCdGdTdGdCdAdGdTmGdCdCdTdTdCmGmGdCdCdGdTdGdCdGdGdTdGdCdCdTdCdCdGdTdCdAdCdGdCdC[invdT]; aptamer)
% binding @ 100 nM vWF (Phase 1 modification): 43% | Kd (Phase 1 modification): 2 nM

ARC1239: ARC1172 with composite 2'-O methyl replacements in the stem regions (dGdGdCdGdTdGdCdAdGdTdGmCmCdTdTdCdGdGmCdCdGdTdGdCdGdGdTdGdCdCdTdCdCdGdTdCdAdCdGdCdC[invdT]; aptamer)
% binding @ 100 nM vWF (Phase 1 modification): 37% | Kd (Phase 1 modification): 5 nM

ARC1240: ARC1172 with composite 2'-O methyl replacements in the stem regions (dGdGdCdGdTdGdCdAdGdTmGmCmCdTdTdCmGmGmCdCdGdTdGdCdGdGdTdGdCdCdTdCdCdGdTdCdAdCdGdCdC[invdT]; aptamer)
% binding @ 100 nM vWF (Phase 1 modification): 40% | Kd (Phase 1 modification): 4 nM

ARC1361: ARC1346 with a mC to dC modification at position 36 (mGmCmGmUdGdCdAmGmUmGmCmCmUmUmCmGmGmCdCmGdTmGdCdGdGdTmGmCdCmUdCdCmGmUdCmAmCmGmC[invdT])
% binding @ 100 nM vWF (Phase 3 modification): 38.5% | Kd (Phase 3 modification): 7.9 nM

ARC1362: ARC1361 with single phosphorothioate phosphate backbone modification (mGmCmGmU*dGdCdAmGmUmGmCmCmUmUmCmGmGmCdCmGdTmGdCdGdGdTmGmCdCmUdCdCmGmUdCmAmCmGmC[invdT])
% binding @ 100 nM vWF (Phase 3 modification): 34.3% | Kd (Phase 3 modification): 9.9 nM

ARC1363: ARC1361 with single phosphorothioate phosphate backbone modification (mGmCmGmUdG*dCdAmGmUmGmCmCmUmUmCmGmGmCdCmGdTmGdCdGdGdTmGmCdCmUdCdCmGmUdCmAmCmGmC[invdT]; aptamer)
% binding @ 100 nM vWF (Phase 3 modification): 32.7% | Kd (Phase 3 modification): 12.7 nM

ARC1364: ARC1361 with single phosphorothioate phosphate backbone modification (mGmCmGmUdGdC*dAmGmUmGmCmCmUmUmCmGmGmCdCmGdTmGdCdGdGdTmGmCdCmUdCdCmGmUdCmAmCmGmC[invdT]; aptamer)
% binding @ 100 nM vWF (Phase 3 modification): 36.9% | Kd (Phase 3 modification): 8.2 nM

ARC1365: ARC1361 with single phosphorothioate phosphate backbone modification (mGmCmGmUdGdCdA*mGmUmGmCmCmUmUmCmGmGmCdCmGdTmGdCdGdGdTmGmCdCmUdCdCmGmUdCmAmCmGmC[invdT]; aptamer)
% binding @ 100 nM vWF (Phase 3 modification): 35.4% | Kd (Phase 3 modification): 10.8 nM

ARC1366: ARC1361 with single phosphorothioate phosphate backbone modification (mGmCmGmUdGdCdAmGmUmGmCmCmUmUmCmGmGmC*dCmGdTmGdCdGdGdTmGmCdCmUdCdCmGmUdCmAmCmGmC[invdT]; aptamer)
% binding @ 100 nM vWF (Phase 3 modification): 28.9% | Kd (Phase 3 modification): 15.5 nM

ARC1367: ARC1361 with single phosphorothioate phosphate backbone modification (mGmCmGmUdGdCdAmGmUmGmCmCmUmUmCmGmGmCdC*mGdTmGdCdGdGdTmGmCdCmUdCdCmGmUdCmAmCmGmC[invdT]; aptamer)
% binding @ 100 nM vWF (Phase 3 modification): 30.4% | Kd (Phase 3 modification): 13.9 nM
